Experimental data as given in paper PMC2879362, “Design of Group IIA Secreted/Synovial Phospholipase A2 Inhibitors: An Oxadiazolone Derivative Suppresses Chondrocyte Prostaglandin E2 Secretion” (PLoS ONE, 2010).

Tests used:
COX-1 = experiment: Western blot of COX-1 protein level in IL-1β-treated chondrocytes; assay type: cell-based, rabbit; conditions: C8 0.31-1.24 µM in DMEM, IL-1β 20 h
Description: As expected, COX-1 protein was detectable but COX-2 and iNOS proteins were undetectable in untreated control conditions (Fig. 6A). […] Consequently, the protein ratio of COX-1 to COX-2 was not modified by C8 (Fig. 6B). […] Cell lysates were centrifuged for 15 min at 14000 rpm at 4°C and supernatants were collected. Protein concentrations were determined by the Bradford method by use of the Protein Assay dye reagent (Bio-Rad). Protein extracts (20 µg) were size-separated by SDS-PAGE in a 10% (w/v) polyacrylamide gel and electroblotted to a nitrocellulose membrane. Equal protein loading and transfer was confirmed by staining the membrane with Ponceau Red [0.2% (w/v) in H2O:acetic acid 99∶1]. The membrane was sequentially incubated with antibodies against COX-1 (1∶200, Santa Cruz Biotechnology), COX-2 (1∶500, Santa Cruz Biotechnology), iNOS (1∶400, BD Biosciences) or α-tubulin (1∶100, Santa Cruz Biotechnology) and then with peroxidase-conjugated donkey anti-goat IgG (1∶20000) or donkey anti-rabbit IgG (1∶200, both Santa Cruz Biotechnology). Immunocomplexes were detected by an enhanced chemiluminescence kit (Amersham Bioscience). The membrane was stripped by incubation in 0.2 M NaOH between successive immunodetections. Semi-quantitative scanning densitometry involved use of the ImageJ program (NIH, USA).

[1] = tested on: COX-1/COX-2 protein ratio; experiment: COX-1/COX-2 protein ratio by scanning densitometry of western blots; assay type: cell-based, rabbit; conditions: C8 0.31-1.24 µM in DMEM, IL-1β 20 h
Text: As expected, COX-1 protein was detectable but COX-2 and iNOS proteins were undetectable in untreated control conditions (Fig. 6A). […] Consequently, the protein ratio of COX-1 to COX-2 was not modified by C8 (Fig. 6B). […] Results from one representative experiment in five are shown. (B) Intensities of the COX-1 and COX-2 immunoreactive bands evaluated by semi-quantitative scanning densitometry. Data represent the COX-1/COX-2 protein ratio and are expressed as relative arbitrary units, where the IL-1β-treated group represents 1. Values are means ± SEM (n = 5 independent determinations). No significant differences were found between the groups. […] Cell lysates were centrifuged for 15 min at 14000 rpm at 4°C and supernatants were collected. Protein concentrations were determined by the Bradford method by use of the Protein Assay dye reagent (Bio-Rad). Protein extracts (20 µg) were size-separated by SDS-PAGE in a 10% (w/v) polyacrylamide gel and electroblotted to a nitrocellulose membrane. Equal protein loading and transfer was confirmed by staining the membrane with Ponceau Red [0.2% (w/v) in H2O:acetic acid 99∶1]. […] Immunocomplexes were detected by an enhanced chemiluminescence kit (Amersham Bioscience). […] Semi-quantitative scanning densitometry involved use of the ImageJ program (NIH, USA).

[2] = target: T1, human GIIAPLA2 (hGIIAPLA2) (Homo sapiens, UniProt P14555); experiment: In vitro fluorimetric PLA2 assay (β-py-C10-PG substrate); assay type: biochemical; conditions: 2 µM β-py-C10-PG, 1 ng/mL hGIIAPLA2
T1 construct: hGIIAPLA2 was prepared as previously described [33]; made in house
T1 sequence (P14555 21-144): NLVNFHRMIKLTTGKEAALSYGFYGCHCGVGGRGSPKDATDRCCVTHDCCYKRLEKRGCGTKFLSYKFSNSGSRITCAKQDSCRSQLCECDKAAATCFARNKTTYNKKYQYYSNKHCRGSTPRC
Description: (§1) The compounds C1-C8 were submitted to fluorimetric assay to determine their inhibitory potencies and selectivity towards human GIIAPLA2 (hGIIAPLA2) versus porcine group IB PLA2 (pGIBPLA2) (Table 2). GIBPLA2 is an enzyme of the same family as GIIAPLA2 (sPLA2) but is mainly involved in digestion of dietary phospholipids and is secreted by the pancreas. Lipophilicity parameters, log P, of these products are calculated by use of Rekker's fragmental data (Table 2). The molecules C1-C8 are specific inhibitors of hGIIAPLA2 because none inhibited pGIBPLA2 at the highest concentration tested (100 µM). Such selectivity implies that C1-C8 should not interfere with the digestion process.
(§2) Fatty-acid free BSA and pancreatic PLA2 were from Sigma. hGIIAPLA2 was prepared as previously described. The fluorescent substrate for PLA2 assay, 1-hexadecanoyl-2-(10-pyrenedecanoyl)-sn-glycero-3-phosphoglycerol, ammonium salt (β-py-C10-PG) was from Molecular Probes (Eugene). PLA2 activity was evaluated as previously described with β-py-C10-PG used as a substrate (2 µM final concentration). In a total volume of 1 mL, the standard reaction medium contained 50 mM Tris-HCl (pH 7.5), 500 mM NaCl, 1 mM EGTA, 2 µM β-py-C10-PG, 0.1% fatty-acid free BSA and 6 ng/mL pancreatic PLA2 or 1 ng/mL hGIIAPLA2. The fluorescence (λex = 342 nm and λem = 398 nm) of the enzymatic reaction medium was recorded for 3 min with use of a spectrofluorimeter LS 50 (Perkin-Elmer) equipped with a Xenon lamp. The reaction was initiated by the addition of CaCl2 (10 mM, final concentration). The increase in fluorescence was continuously recorded for 1 min, and PLA2 activity was calculated as previously described. When used, the inhibitor was added to the reaction medium after introduction of BSA. The activity is expressed in micromoles of fluorescent β-py-C10-PG hydrolyzed per min. The standard error of the mean of three independent experiments was less than 10%, which allows for the determination of the IC50 values (concentration of inhibitors producing 50% inhibition) of each compound.

[3] = target: T2, porcine group IB PLA2 (pGIBPLA2) (Sus scrofa, UniProt P00592); experiment: as above; assay type: biochemical; conditions: 2 µM β-py-C10-PG, 6 ng/mL pancreatic PLA2
T2 construct: purchased Sigma
Description: as §1, §2

T2 sequence (P00592 23-146): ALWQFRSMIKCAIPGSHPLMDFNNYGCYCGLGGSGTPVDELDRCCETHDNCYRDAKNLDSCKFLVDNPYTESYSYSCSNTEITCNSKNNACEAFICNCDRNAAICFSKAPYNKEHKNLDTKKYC

O=c1[nH]c(Cc2ccc(OCCCCCOc3cc4ccccc4c4ccccc34)cc2)no1 [C8]
effect on COX-1 protein level (COX-1): did not alter | effect on protein ratio of COX-1 to COX-2 [1]: not modified | IC50 [2]: 620 ± 150 nM | IC50 [3]: > 100000 nM
